The target of experiment [1] is FAD-linked sulfhydryl oxidase ALR (Homo sapiens, UniProt P55789). In words: ALR-catalysed DTT oxidation blockers – biochemical, H2O2 detection, luminescence, cherry-pick, dose response (AID 493248).
The next experiment has as its target T1, Protein RecA (Mycobacterium tuberculosis, UniProt P9WHJ3).
T1 sequence (P9WHJ3 whole entry): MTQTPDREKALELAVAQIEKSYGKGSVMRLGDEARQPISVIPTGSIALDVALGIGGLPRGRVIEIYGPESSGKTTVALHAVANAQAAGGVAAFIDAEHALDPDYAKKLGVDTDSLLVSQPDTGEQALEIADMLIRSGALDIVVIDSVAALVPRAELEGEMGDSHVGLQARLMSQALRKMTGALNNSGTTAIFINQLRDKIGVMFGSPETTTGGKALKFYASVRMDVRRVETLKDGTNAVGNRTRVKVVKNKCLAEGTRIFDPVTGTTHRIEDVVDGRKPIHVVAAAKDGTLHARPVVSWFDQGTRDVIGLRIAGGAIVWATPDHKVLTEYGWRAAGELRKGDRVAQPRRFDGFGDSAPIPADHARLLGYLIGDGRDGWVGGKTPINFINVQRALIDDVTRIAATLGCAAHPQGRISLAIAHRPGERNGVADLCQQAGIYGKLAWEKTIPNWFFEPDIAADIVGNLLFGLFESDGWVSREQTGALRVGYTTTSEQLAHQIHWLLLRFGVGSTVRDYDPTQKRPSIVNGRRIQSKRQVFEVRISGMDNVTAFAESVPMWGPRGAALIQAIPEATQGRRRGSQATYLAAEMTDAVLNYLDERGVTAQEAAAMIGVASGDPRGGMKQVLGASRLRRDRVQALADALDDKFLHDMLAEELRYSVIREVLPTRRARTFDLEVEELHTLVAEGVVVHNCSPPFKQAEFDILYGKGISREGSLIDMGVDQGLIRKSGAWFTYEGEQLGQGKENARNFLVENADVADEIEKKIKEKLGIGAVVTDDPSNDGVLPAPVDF
As to the kind of experiment: Fluorescence Cell-Free Homogeneous Dose Retest to Identify Inhibitors of RecA-Intein Splicing Activity. [Related pubchem assays (depositor defined):AID2097, AID2223, AID489010, AID492950]. It counts as functional.

Experiment [2] concerns the target T2, Replicative DNA helicase DnaB (Mycobacterium tuberculosis, UniProt P9WMR3).
T2 sequence (P9WMR3 whole entry): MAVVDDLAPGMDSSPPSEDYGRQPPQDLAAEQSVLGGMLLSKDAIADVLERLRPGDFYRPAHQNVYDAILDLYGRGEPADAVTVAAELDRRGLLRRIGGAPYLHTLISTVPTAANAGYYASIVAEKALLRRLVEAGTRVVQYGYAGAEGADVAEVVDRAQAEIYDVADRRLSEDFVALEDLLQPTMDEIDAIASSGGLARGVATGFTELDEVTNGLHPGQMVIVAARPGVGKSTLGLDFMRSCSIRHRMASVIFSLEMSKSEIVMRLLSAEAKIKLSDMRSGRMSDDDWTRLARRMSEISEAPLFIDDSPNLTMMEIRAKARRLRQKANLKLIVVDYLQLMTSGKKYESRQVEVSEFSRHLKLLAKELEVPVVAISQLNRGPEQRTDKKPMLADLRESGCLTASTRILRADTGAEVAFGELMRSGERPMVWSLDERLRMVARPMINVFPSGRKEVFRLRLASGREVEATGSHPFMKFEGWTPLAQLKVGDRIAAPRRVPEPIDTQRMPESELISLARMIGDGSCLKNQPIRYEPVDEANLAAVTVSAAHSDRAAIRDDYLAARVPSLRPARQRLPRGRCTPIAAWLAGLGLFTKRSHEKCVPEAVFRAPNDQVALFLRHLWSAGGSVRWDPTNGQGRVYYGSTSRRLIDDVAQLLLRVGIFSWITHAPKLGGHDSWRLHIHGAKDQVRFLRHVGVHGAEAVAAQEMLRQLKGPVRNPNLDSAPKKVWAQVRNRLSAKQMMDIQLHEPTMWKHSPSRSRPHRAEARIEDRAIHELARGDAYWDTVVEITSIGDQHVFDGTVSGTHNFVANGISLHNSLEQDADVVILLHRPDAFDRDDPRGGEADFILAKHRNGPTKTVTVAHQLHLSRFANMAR
In words: DnaB intein splicing inhibitors, dose response, biochemical, cell-free fluorescence (AID 449749). Type of experiment: functional.

Experiment [3] concerns the target T3, Fatty acid synthase (Homo sapiens, UniProt P49327). In words: inhibition of human FAS-TE enzyme activity – biochemical, endpoint fluorescence intensity, uHTS hits, dose response (AID 624327).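 Further: fluorescence from hydrolysis of an O-methyl fluorescein acyl ester substrate by the enzyme.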 Type of experiment: functional.
For experiment [4], the target named is T3, Fatty acid synthase. As to the kind of experiment: inhibition of human FAS-TE enzyme activity – biochemical, kinetic fluorescence intensity, dose response (AID 624326).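 Further: rate of fluorescence rise from hydrolysis of a fluorogenic O-methyl fluorescein ester substrate.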 It counts as functional.
For the next experiment, the system named is INS1. As to the kind of experiment: INS-1E survival protection against cytokine death – cell-based, luminescence, retest, dose response (AID 449756).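 Further: cell death triggered by IL-1 beta plus TNF-alpha plus IFN-gamma mixture; protective hits raise ATP signal compared with cytokine alone wells.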 It counts as functional. Conditions: Rattus norvegicus.
Experiment [5] can be described thus: Luminescence Cell-Based Dose Retest to Confirm Inhibitors of Cancer Stem Cells. [Related pubchem assays (depositor defined):AID2717, AID2721]. Conditions: Homo sapiens. Type of experiment: functional.
The target of the next experiment is T4, Cytochrome P450 1A2 (Homo sapiens, UniProt P05177).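 Further: PubChem cytochrome P450 panel assay, CYP1A2 panel member.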
T4 sequence (P05177 whole entry): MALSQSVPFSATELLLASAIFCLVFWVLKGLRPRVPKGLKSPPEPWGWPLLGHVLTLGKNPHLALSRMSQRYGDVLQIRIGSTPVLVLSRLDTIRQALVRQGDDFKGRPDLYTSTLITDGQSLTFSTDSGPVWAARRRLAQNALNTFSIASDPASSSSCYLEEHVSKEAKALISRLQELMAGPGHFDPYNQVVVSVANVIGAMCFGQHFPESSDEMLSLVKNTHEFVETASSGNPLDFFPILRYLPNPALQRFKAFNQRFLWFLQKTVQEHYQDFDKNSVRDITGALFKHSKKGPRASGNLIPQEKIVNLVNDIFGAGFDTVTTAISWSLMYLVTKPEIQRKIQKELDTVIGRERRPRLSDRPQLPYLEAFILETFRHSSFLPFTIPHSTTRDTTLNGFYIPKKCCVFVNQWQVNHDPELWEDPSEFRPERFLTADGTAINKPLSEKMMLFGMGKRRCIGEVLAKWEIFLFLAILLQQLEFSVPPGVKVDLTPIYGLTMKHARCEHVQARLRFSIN

Experiment [6] can be described thus: Trypanosoma cruzi growth suppression in host cells – NIH3T3 host cells, beta-gal luminescence, confirmation (AID 2044).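 Further: intracellular parasites grown in NIH/3T3 mouse fibroblasts as host cells; luminescent beta-galactosidase reporter signal from transgenic T. cruzi replicating inside host cells; inhibitors lower the luminescence signal.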 Type of experiment: functional, cell-based.
Experiment [7] can be described thus: NIH3T3 cell viability loss – ATP luminescence, mouse fibroblasts, counter-screen, dose response (AID 2010).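 Further: cells exposed to compound for about 90 hours before reading.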 Type of experiment: functional, cell-based.
For experiment [8], the system named is Streptococcus sp. 'group A'. In words: Streptococcus pyogenes SK(-)GAS viability under kanamycin – luminescence, BacTiterGlo, confirmation, counter-screen for streptokinase expression inhibitor project, dose response (AID 1900). Type of experiment: functional, organism-based. For orientation: Counterscreens check selectivity or assay interference.
A further experiment relates to Streptococcus. In words: GAS UMAA2166 growth inhibition – luminescence, BacTiterGlo, counter-screen for streptokinase expression inhibitor project, dose response (AID 1915).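 Further: potency for reduction of bacterial viability or growth.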 It counts as functional, organism-based.
In another experiment the target is T5, Streptokinase A (Streptococcus pyogenes serotype M1, UniProt P10520).
T5 sequence (P10520 whole entry): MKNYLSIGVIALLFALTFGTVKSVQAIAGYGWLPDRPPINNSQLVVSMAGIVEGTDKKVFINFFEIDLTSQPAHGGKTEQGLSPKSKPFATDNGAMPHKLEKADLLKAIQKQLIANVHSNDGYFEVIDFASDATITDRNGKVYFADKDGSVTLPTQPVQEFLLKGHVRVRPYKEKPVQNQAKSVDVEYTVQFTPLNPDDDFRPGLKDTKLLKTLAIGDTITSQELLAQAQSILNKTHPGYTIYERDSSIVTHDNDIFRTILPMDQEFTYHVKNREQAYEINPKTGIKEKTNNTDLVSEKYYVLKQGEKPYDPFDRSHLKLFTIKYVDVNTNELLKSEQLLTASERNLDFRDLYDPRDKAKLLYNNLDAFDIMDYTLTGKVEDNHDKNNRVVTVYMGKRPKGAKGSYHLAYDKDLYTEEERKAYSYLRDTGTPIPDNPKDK
As to the kind of experiment: viability-normalized secreted streptokinase activity reduction – plasminogen activation absorbance, OD405, dose response (AID 1914).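 Further: secreted streptokinase activity via plasminogen activation per viability signal from cell pellet.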 It counts as functional, Streptococcus pyogenes M1 GAS.

Active and inactive are the calls of the source.

Chain of FAD-linked sulfhydryl oxidase ALR (P55789 whole entry): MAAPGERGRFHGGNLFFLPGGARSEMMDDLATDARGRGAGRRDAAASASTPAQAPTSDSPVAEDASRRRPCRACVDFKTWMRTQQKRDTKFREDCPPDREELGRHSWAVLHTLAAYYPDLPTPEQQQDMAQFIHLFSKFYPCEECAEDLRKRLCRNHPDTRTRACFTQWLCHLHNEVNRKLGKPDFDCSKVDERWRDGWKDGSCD
T3 sequence (P49327 whole entry): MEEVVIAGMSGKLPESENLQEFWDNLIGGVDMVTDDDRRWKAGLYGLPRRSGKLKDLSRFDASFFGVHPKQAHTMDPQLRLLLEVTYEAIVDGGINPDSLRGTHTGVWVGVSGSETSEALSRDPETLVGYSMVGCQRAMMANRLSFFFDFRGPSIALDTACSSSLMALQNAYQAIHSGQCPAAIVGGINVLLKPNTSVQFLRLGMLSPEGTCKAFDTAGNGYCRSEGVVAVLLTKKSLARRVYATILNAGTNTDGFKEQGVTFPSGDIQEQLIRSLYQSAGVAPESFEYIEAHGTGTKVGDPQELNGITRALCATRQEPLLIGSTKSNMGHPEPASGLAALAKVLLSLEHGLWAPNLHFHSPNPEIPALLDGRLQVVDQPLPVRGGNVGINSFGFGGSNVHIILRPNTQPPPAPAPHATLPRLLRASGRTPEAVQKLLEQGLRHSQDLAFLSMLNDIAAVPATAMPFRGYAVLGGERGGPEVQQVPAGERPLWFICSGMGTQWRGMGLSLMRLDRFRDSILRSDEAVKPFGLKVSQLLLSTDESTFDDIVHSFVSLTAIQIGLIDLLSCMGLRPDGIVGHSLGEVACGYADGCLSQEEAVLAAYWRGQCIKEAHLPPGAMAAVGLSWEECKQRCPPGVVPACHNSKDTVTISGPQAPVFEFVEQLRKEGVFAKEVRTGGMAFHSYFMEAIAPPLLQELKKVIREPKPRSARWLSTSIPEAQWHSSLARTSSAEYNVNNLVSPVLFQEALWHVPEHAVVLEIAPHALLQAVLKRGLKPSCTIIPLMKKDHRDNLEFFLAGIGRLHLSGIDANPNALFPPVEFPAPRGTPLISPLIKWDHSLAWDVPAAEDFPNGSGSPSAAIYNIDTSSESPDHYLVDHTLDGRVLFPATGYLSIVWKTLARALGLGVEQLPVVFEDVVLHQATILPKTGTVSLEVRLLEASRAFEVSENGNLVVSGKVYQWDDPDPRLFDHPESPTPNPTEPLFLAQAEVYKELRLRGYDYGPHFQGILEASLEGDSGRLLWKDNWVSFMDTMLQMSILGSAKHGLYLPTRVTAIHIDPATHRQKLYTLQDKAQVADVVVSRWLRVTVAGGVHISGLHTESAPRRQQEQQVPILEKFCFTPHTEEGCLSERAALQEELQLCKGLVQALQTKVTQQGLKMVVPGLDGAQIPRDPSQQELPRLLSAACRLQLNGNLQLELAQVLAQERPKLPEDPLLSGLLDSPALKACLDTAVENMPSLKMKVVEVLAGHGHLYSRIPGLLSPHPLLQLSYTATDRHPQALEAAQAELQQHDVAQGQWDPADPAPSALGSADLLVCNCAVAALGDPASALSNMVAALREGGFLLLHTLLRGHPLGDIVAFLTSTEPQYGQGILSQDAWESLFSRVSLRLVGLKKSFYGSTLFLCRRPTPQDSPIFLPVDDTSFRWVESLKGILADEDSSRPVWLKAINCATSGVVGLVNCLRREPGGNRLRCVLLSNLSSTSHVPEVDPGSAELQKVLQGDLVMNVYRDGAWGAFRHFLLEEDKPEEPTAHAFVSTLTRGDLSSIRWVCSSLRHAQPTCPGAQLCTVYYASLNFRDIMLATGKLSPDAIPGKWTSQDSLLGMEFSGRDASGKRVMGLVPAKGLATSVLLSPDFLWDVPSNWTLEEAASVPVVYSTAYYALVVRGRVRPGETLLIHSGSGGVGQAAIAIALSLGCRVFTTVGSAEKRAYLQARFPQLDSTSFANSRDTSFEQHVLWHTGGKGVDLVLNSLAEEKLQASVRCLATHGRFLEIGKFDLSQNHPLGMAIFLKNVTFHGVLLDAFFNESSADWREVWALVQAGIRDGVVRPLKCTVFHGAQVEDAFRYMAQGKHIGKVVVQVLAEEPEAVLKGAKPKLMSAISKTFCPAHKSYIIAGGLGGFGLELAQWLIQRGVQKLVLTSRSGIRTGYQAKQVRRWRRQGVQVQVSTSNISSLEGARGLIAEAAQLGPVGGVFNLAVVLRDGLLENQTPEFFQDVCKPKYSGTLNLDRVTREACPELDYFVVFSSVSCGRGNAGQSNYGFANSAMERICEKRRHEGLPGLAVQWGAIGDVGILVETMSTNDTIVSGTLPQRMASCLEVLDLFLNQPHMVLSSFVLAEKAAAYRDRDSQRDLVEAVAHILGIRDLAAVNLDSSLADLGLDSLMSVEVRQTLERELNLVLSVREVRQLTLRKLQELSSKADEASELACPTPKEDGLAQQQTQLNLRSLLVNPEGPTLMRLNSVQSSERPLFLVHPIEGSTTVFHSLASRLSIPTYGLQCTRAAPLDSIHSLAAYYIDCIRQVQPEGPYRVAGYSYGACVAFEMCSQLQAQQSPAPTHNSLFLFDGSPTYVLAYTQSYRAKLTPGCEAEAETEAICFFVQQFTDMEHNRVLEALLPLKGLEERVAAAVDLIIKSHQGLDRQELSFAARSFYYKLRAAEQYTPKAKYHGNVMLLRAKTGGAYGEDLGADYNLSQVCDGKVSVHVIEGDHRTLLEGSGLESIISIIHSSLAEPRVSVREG

As to `COc1ccc(Cn2c(S)nnc2-c2ccc(OC)cc2)cc1`, the AC50 in experiment [1] was 0.009 µM (active).
Turning to `COc1ccc2[nH]c(N3CCCC3)nc2c1`, the AC50 in experiment [1] is 6.11 µM (active).
In the case of `Cc1n[nH]c2c1C(c1c[nH]nc1-c1ccc(F)cc1)C(C#N)=C(N)O2` (centres undefined), the EC50 on Protein RecA was 3.88 µM (active). In addition, the AC50 in experiment [2] is 12.1 µM (active).
Regarding `O=C(COC(=O)c1cccc([N+](=O)[O-])c1)NC1CCCC1`, the IC50 at Fatty acid synthase [3] was 9.58 µM (active); at Fatty acid synthase [4], 8.78 µM (active).
Consider `CCOC(=O)Cc1c(O)oc2nnc(C)c-2c1C`, for which, at Protein RecA, the 50% effective concentration (EC50) is 19.1 µM (active). In addition, the AC50 in experiment [2] was > 380 µM (inactive).
Consider `O=C(/C=C/c1cccc([N+](=O)[O-])c1)NCCc1ccc(F)cc1`, for which the IC50 was 10.7 µM (active) at Fatty acid synthase [3] and 11.8 µM (active) on Fatty acid synthase [4].
As to `Cc1ccccc1CNc1ccc(C(CC(N)=O)NC(=O)c2ccc(Br)cc2)cc1[N+](=O)[O-]` (centres undefined), the AC50 with INS1 is 14.9 µM (active); in experiment [5], 0.986 µM (active).
Turning to `Cc1ccc(C2C(C#N)=C(N)Oc3[nH]nc(-c4cccs4)c32)s1` (centres undefined), the EC50 at Protein RecA was 1.82 µM (active). Besides, the AC50 in experiment [2] was 1.54 µM (active).
For `COc1ccc(NC2CCCN(C(=O)CCc3ccncc3)C2)cc1OC` (centres undefined), in experiment [1], the AC50 was 4.75 µM (active).
Turning to `CN(C)S(=O)(=O)c1cccc(-c2cn3cccnc3n2)c1`, the AC50 in experiment [1] was 0.278 µM (active).
Regarding `CN(C)S(=O)(=O)c1ccc(C(=O)N2CCN=C2SCc2cccnc2)cc1`, in [1], the AC50 was 0.017 µM (active).
On to `Cc1c(C)c2ccc(OCC(=O)N3CCN(c4ccccc4)CC3)cc2oc1=O`, for which the IC50 is 5.34 µM (active) on Fatty acid synthase [3] and 6.95 µM (active) on Fatty acid synthase [4].
For `CCCCCOP(=O)(OCCCCC)C1(NS(=O)(=O)c2ccccc2)C=CC(=O)c2ccccc21` (centres undefined), at Protein RecA, the EC50 is 2.69 µM (active). Moreover, the AC50 in experiment [2] was 2.96 µM (active).
For `O=C(CN1CCN(S(=O)(=O)c2ccc(Cl)cc2)CC1)Nc1ccc2c(c1)OCO2`, the EC50 on Protein RecA is > 380 µM (inactive). Also, the figures for the half-maximal activity concentration (AC50) (at Cytochrome P450 1A2; in experiment [2]) were 15.8 µM (inconclusive) and 55.9 µM (active), respectively.
As to `Cc1noc(C)c1NC(=O)Nc1cccc2c1O[C@H](CN(C)C(=O)Nc1ccccc1)[C@@H](C)CN([C@H](C)CO)C2=O`, the half-maximal inhibitory concentration (IC50) on Fatty acid synthase [3] was 13 µM (active); on Fatty acid synthase [4], 9.53 µM (active).
`Cc1ccn2c(=O)nc(SCC(=O)N3N=C(c4cccs4)CC3c3ccc(F)cc3)nc2c1` (centres undefined): the figures for the EC50 in experiment [6] and in experiment [7] were 1.35 µM (active) and > 60 µM (not active), respectively. The IC50 at Fatty acid synthase [3] is 13.9 µM (active); at Fatty acid synthase [4], 10.3 µM (active).
Turning to `CCN(CC)S(=O)(=O)c1ccc(N2CCc3ccccc3C2)nc1`, the IC50 was 4.19 µM (active) at Fatty acid synthase [3] and 9.71 µM (active) at Fatty acid synthase [4].
As for `O=C(CC1C[C@H](C(=O)N2CCOCC2)[C@@]2(CCC3CCCC3)c3[nH]c4ccccc4c3CCN2C1=O)NCCN1CCOCC1` (some centres undefined), the IC50 was 2.6 µM (active) on Fatty acid synthase [3] and 2.17 µM (active) at Fatty acid synthase [4].
On to `Cc1nc(C#N)c(N/N=C/c2cccc(Cl)c2)o1`, for which the AC50 in experiment [1] was 1.66 µM (active).
As for `Oc1ccc(Br)cc1-c1cc(-c2ccc(Cl)cc2)[nH]n1`, the AC50 with INS1 was 4.87 µM (active).
In the case of `O=c1[nH]cc(O)c(=O)[nH]1`, the EC50 at Protein RecA is 9.27 µM (active). Also, in [2], the AC50 is 7.97 µM (active).
With `Fc1ccc(-n2c(Cc3ccccc3)nnc2SCc2nc(-c3ccc(Cl)cc3)no2)cc1`, the IC50 on Fatty acid synthase [3] was 14 µM (active); at Fatty acid synthase [4], 8.88 µM (active).
Take `CCNc1ccc(S(=O)(=O)N(C)C)cc1NCC(=O)Nc1ccccc1Cl`: the AC50 in experiment [1] was 5.58 µM (active).
Take `COc1ccc(C2CC(c3cccs3)=NN2C(=O)CSC2=NCCS2)cc1` (centres undefined): the EC50 on Protein RecA is 5.31 µM (active); in experiment [8], 21.5 µM (active); in the experiment with Streptococcus, > 150 µM (not active); at Streptokinase A, > 150 µM (not active). Also, the AC50 in experiment [2] is 10.9 µM (active).
As for `O=C(c1cc2cc3ccc(Cl)cc3nc2o1)N1CCCCCC1`, the IC50 is 18.7 µM (active) at Fatty acid synthase [3] and 15.6 µM (active) on Fatty acid synthase [4].
Turning to `Cn1sc(NC(=O)c2ccc(Cl)cc2)nc1=O`, the AC50 in experiment [1] was 1.88 µM (active).

Broadly, the AC50 is the concentration at which the activity in the assay is half-maximal. By EC50 is commonly meant the concentration needed to bring the measured effect to its halfway point. A word on the IC50: it is the midpoint of a concentration-inhibition curve.

The values above are taken from ChEMBL document CHEMBL1201862, “PubChem BioAssay data set” (2004).
